The values below come from publication PMC9886266, “New [1,2,4]triazolo[4,3-c]quinazolines as intercalative Topo II inhibitors: Design, synthesis, biological evaluation, and in silico studies” (PLOS ONE, 2023).

Broadly, the IC50 is the concentration at which inhibition is half-maximal.

For test [1], the target named is T1, Topoisomerase II (Topo II) (Homo sapiens, UniProt P11388).
T1 construct: purchased TopoGEN, Inc., Columbus
Briefly: In vitro Topo II inhibitory assay (TopoGEN Topo II drug screening kit). Type of test: biochemical. The procedure:
The reported method described by Patra et al was applied using Topo II drug screening kit (TopoGEN, Inc., Columbus).
A typical enzyme reaction was structured to determine Topo II activity. The reaction mixture included Topo II (2 μl), substrate super coiled pHot1 DNA (0.25 μg), 50 μg/ml test compound (2 μl), and assay buffer (4 μl). To start the reaction, the mixture was allowed to incubate in 37°C for 30 min. To terminate the reaction, a mixture of 10% sodium dodecylsulphate (2 μl) and proteinase K (50 μg/mL) was added at 37°C for 15 min. then incubated for 15 min at 37°C.
(§1) After that, the DNA was run on 1% agarose gel in BioRad gel electrophoresis system for 1–2 h followed by staining with GelRedTM stain for 2 h and destained for 15 min with TAE buffer. The gel was imaged via BioRad’s Gel DocTMEZ system. Both supercoiled and linear strands DNA were incorporated in the gel as markers for DNA-Topo II intercalators. The results of IC50 values were calculated using the GraphPad Prism version 7. Each reaction was performed in duplicate, and at least three independent determinations of each IC50 were made. […]
S2.2. Measurement of topoisomerase II Activity […]
analyzed for their Topo II inhibitory activities. The reported method described by Patra et al was applied using Topo II drug screening kit (TopoGEN, Inc., Columbus).
A typical enzyme reaction was structured to determine Topo II activity. The reaction mixture included Topo II (2 µl), substrate super coiled pHot1 DNA (0.25 µg), 50 µg/ml test compound (2 µl), and assay buffer (4 µl). To start the reaction, the mixture was allowed to incubate in 37 °C for 30 min. To terminate the reaction, a mixture of 10% sodium dodecylsulphate (2 µl) and proteinase K (50 µg/mL) was added at 37 °C for 15 min. then incubated for 15 min at 37 °C.
as §1

Test [2] concerns BAX. Briefly: Western blot, BAX level. Type of test: cell-based, human. The following applies: HCT-116, 2.44 μM, 48 h; control = 1.00. The procedure: In comparison to the control, compound 16 elevated the level of the proapoptotic protein (BAX) by 2.18 times. […] Furthermore, compound 16 enhanced the BAX/Bcl-2 ratio by 4.38-fold in comparison to control cells.
The effects of compound 16 on the expression of BAX, and Bcl‐2 were determined using Western blot analysis [62–64]as described in Electronic Supplementary Material S2.7 in S1 Appendix. […]
for 48 h. Then, the cells were fixed in 70% ethanol at 4 °C for 12 h. After that, the cells were washed with cold PBS, incubated with 100 μl RNase A at 37 °C for 30 min, and stained with 400 μl PI in the dark at room temperature for further 30 min. The stained cells were measured using Epics XL-MCL™ Flow Cytometer (Beckman Coulter), and the data were analyzed using Flowing software (version 2.5.1, Turku Centre for Biotechnology, Turku, Finland).
S2.6. Flow cytometry analysis for apoptosis
Flow cytometry cell apoptosis analysis was used to investigate the apoptotic effect of the synthesized compounds. […] The stained cells were measured using Epics XL-MCL™ Flow Cytometer and analyzed using Flowing software. […]
The proteins expression of BAX, and Bcl‐2 were determined using Western blot analysis. […] Total protein concentrations in the supernatant were determined colorimetrically using the Pierce 660 nm Protein Assay method (Thermo Fisher Scientific, Rockford, IL), with BSA as the standard. […]
Background: A western blot detects proteins with antibodies after separation by electrophoresis.

T1 sequence (P11388 whole entry): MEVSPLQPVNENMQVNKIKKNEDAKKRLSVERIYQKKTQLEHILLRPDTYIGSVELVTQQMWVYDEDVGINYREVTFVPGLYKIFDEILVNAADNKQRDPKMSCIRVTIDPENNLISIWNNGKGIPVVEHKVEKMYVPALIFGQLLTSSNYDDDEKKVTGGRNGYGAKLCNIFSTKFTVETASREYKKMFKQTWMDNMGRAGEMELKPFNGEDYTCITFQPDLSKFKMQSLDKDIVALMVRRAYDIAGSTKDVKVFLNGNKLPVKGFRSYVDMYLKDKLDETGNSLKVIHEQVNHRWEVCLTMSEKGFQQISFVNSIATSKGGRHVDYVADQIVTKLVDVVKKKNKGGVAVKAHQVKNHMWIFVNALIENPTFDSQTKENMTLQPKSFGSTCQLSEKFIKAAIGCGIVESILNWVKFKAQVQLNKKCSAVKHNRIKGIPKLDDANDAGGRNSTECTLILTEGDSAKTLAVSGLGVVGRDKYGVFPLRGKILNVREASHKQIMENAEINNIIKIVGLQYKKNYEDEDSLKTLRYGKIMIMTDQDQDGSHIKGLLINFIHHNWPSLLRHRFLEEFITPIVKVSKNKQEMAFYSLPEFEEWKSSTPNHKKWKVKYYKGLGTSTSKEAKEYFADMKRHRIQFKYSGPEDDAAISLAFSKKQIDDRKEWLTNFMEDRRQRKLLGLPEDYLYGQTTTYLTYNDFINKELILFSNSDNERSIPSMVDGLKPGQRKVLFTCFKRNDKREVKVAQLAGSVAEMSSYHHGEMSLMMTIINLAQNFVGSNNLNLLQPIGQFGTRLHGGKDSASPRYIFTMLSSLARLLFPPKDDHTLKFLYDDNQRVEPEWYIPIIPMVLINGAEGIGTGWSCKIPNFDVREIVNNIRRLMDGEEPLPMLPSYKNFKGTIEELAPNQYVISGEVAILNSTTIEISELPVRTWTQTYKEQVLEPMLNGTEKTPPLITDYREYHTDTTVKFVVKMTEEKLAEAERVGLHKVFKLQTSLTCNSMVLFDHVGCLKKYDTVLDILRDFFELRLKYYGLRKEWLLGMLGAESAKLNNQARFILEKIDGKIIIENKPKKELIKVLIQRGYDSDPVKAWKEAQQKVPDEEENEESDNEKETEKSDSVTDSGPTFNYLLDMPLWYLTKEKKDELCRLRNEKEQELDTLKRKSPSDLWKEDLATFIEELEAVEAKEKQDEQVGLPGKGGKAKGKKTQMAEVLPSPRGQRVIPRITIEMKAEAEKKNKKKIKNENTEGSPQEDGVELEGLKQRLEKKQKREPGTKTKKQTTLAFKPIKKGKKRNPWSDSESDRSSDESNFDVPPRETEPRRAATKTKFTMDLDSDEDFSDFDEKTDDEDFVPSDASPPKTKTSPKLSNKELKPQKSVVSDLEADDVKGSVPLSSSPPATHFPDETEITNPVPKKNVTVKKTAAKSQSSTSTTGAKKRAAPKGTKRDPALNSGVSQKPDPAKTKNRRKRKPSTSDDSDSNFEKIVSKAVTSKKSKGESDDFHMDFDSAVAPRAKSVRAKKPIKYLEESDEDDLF

Turning to `CCCNc1nc2ccccc2c2nnc(C(F)(F)F)n12` [Compound 16, N-Propyl-3-(trifluoromethyl)-[1,2,4]triazolo[4,3-c]quinazolin-5-amine], half-maximal inhibition in test [1] (IC50) was put at 15.2 ± 0.9 µM. In test [2], the “Protein expression (normalized to β-actin) BAX” value is reported as 2.18 ± 0.12.
